The text below walks through data of patent US20090215782A1, “Use of PDE-5 Inhibitors for Endothelial Repair of Tissues Impaired by Trauma or Disease” (priority 2005, published 2009).

Assay [1] deals with haematological and bone marrow tissues. The note with it: chronic administration; cited from earlier work.
Assay [2] relates to circulating endothelial progenitor cells (EPCs). Briefly: Concentration of circulating EPCs (CD34/AC133 double positive) in peripheral blood by flow cytometry after oral Vardenafil 20 mg, placebo crossover. The note with it: healthy men, mean±SD. The class given is in vivo, human. The procedure:
10 healthy men without cardiovascular risk factors were selected for the study. The ages of the 10 men ranged from 21 to 25 years. Blood samples taken for the purposes of the study were evaluated by flow cytometry, as previously described (Scheubel R. J., Zorn H., Silber R. E., Kuss O., Morawietz H., Holtz J., Simm A. Age-dependent depression in circulating endothelial cell progenitor cells in patients undergoing coronary artery bypass grafting. J Am Coll Cardiol. 42, 2073-2080,2003).
Control samples from each subject were examined to validate the study. The samples were obtained in triplicate, on different days and at different hours of the day and examined. No significant variability was found among the subjects.
Subjects were randomly allocated to two groups of five subjects. The first group received Vardenafil 20 mg on the first visit and a placebo one week later. The second group received the placebo on the first visit and Vardenafil 20 mg one week later. […]
Analysis was performed on a sample of 150 μl of peripheral blood extracted from each subject. […] After incubation, the cells were lysed in NH4Cl lysis buffer, washed twice with PBS 1% FCS and then analysed by flow cytometry.
With reference to FIG. 1, forward and side scatter gates were set to include all viable mononuclear cells; into this gate 500,000 events were acquired. […] Cells were scored using a FACSCalibur analyzer (Becton Dickinson Immunocytometry Systems, San Jose, Calif., USA) and data processing using the CellQuest software programmes (Becton Dickinson Immunocytometry Systems).
The percentage of EPCs, in each subject, was calculated by dividing the number of double positive events by the number of total events. The total number of EPCs per volume, of each subject, per volume was calculated by multiplying the percentage of EPCs with the leukocyte count. The data is expressed as mean±SD. Comparisons of the total number of EPCs at baseline, and at two and four hours after the administration of either Vardenafil 20 mg or the placebo were analyzed by the Student's t-test for matched data. […]
For orientation: In flow cytometry, cells or beads pass a laser one at a time.

SMILES strings stand for the structures.

As to `CCCOc1ccc(S(=O)(=O)NCCC2CCCN2C)cc1-c1nc2c(CCC)nn(C)c2c(=O)[nH]1` (centres unmarked) [DA-8159], in assay [1], the “bone marrow density (indicated by a decrease in adipose tissue percentage)” value was “increase” and the lymphomonocytic component count entry is “increase”.

In the case of `CCCc1nc(C)c2c(=O)[nH]c(-c3cc(S(=O)(=O)N4CCN(CC)CC4)ccc3OCC)nn12` [Vardenafil], the “mean increase in EPCs after Vardenafil administration” value in assay [2] (four hours after Vardenafil 20 mg vs baseline) is given as 795.7±176.7 EPCs/Ml. Also, in assay [2] (four hours after Vardenafil 20 mg), the “percentage increase of circulating EPCs with respect to baseline” value is reported as 44.1±16.5%. The “concentration of EPCs” value in assay [2] (four hours after administration of Vardenafil 20 mg, baseline 1849.7±384.3, p<0.001) is 2645.4±509.5 EPC/mL.
